The values that follow come from patent publication US8012980B2, “Isoquinolinone derivatives” (AstraZeneca AB, priority 2008, dated 2011).

This experiment addresses T1, human active recombinant p38 (p38α) (Homo sapiens, UniProt Q16539).
T1 construct: 6His
Nature of the experiment: p38 Alpha Enzyme Assay (AlphaScreen, biotinylated-ATF2 substrate). Type of experiment: biochemical. The conditions noted are these: means of replicate determinations; pre-incubated for 4 hours at 37° C.; SD of assay between 0.2 and 0.3 log units; read-out: p38α inhibition Mean pIC50 (converted). As for the experimental part: The ability of the compounds of formula (I) to inhibit p38 kinase may be determined using the following biological assay:
Enzyme assays were performed in polypropylene 96 well plates. The following solutions were added to each well; 10 μL of compound dilutions in assay buffer (20 mM HEPES pH 7.4, containing 20 mM magnesium acetate, 0.005% (w/v) Tween-20, 10 mM DTT) containing 1% (v/v) DMSO or assay buffer containing 1% (v/v) DMSO alone, 70 μL of assay buffer containing 36 nM substrate (biotinylated-ATF2) and 10 μL of an appropriate dilution of human active recombinant p38-6H is tagged. Depending on batch of p38, an appropriate dilution was typically a 5 nM solution to give a final enzyme concentration of 0.5 nM. At this stage, background control wells also received 50 μL of AlphaScreen quench buffer (10 mM HEPES pH 7.4 containing 100 mM EDTA, 0.2% (w/v) bovine serum albumin). The plate was covered, pre-incubated for 4 hours at 37° C. and the enzyme reaction initiated by addition of 10 μL 1 mM ATP. After incubation for a further 45 minutes at 37° C., the reaction was stopped by addition of 50 μL quench reagent and 50 μL of the quenched reaction mixture transferred to an opaque, white 96-well plate. Detection reagent, 25 μL of 10 mM HEPES pH 7.4 containing 100 mM EDTA, 0.2% (w/v) bovine serum albumin, 0.3 nM anti phosphoATF2 antibody and 25 μg/mL of AlphaScreen protein A acceptor and donor beads' (PerkinElmer Inc.), was added to all wells in a darkened room, the plate sealed and left in the dark for at least 5 hours before AlphaScreen readings were taken using a Perkin Elmer EnVision reader. Total, uninhibited activity was determined from assays performed in each assay plate. The mean control in the absence of p38 activity was subtracted from each well. Data were expressed as percent inhibition of total activity using equation 1. Percent Inhibition=100*(1−Test/Control) Eq.1 Where . . . Test=p38 kinase activity in the presence of compound Control=p38 kinase activity in the absence of compound.
pIC50 is defined as the logarithm of the reciprocal of the concentration of compound required for 50% reduction in total p38 kinase activity.
The standard deviation of the p38 enzyme inhibition assay is between 0.2 and 0.3 log units.
(Bead proximity is the source of the signal in Alpha formats.)

T1 sequence (Q16539 whole entry): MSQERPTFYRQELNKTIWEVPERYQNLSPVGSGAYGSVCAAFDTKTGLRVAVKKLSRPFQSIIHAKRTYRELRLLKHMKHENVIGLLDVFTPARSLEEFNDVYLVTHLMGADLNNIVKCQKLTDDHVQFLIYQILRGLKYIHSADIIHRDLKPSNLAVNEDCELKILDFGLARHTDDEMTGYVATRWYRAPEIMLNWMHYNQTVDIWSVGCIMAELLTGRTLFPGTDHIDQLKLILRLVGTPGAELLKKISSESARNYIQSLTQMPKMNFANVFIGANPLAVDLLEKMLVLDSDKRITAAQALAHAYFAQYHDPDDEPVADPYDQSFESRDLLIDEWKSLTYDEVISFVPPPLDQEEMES

On to `Cc1c(F)cc(C(=O)NC2CC2)cc1-c1ccc2c(=O)n(CC(C)(C)CO)cc(S(=O)(=O)N3CCC[C@@H]3CN)c2c1` [Example 55, 3-[4-{[(2R)-2-(aminomethyl)pyrrolidin-1-yl]sulfonyl}-2-(3-hydroxy-2,2-dimethylpropyl)-1-oxo-1,2-dihydroisoquinolin-6-yl]-N-cyclopropyl-5-fluoro-4-methylbenzamide], for which the IC50 is 2.51 nM.

For the molecule `Cc1c(F)cc(C(=O)NC2CC2)cc1-c1ccc2c(=O)n(CC(C)(C)CO)cc(C(C)N3CCN[C@@H](CO)C3)c2c1` (stereo partly drawn) [Example 44, N-Cyclopropyl-3-fluoro-5-[2-(3-hydroxy-2,2-dimethylpropyl)-4-{1-[(3R)-3-(hydroxymethyl)piperazin-1-yl]ethyl}-1-oxo-1,2-dihydroisoquinolin-6-yl]-4-methylbenzamide], the IC50 was 1.26 nM.

As to `Cc1c(F)cc(C(=O)NC2CC2)cc1-c1ccc2c(=O)n(CC3CC3)cc(S(=O)(=O)N3CCN(C)CC3)c2c1` [Example 48, N-Cyclopropyl-3-{2-(cyclopropylmethyl)-4-[(4-methylpiperazin-1-yl)sulfonyl]-1-oxo-1,2-dihydroisoquinolin-6-yl}-5-fluoro-4-methylbenzamide], the IC50 was 0.398 nM.

With `Cc1c(F)cc(C(=O)NC2CC2)cc1-c1ccc2c(=O)n(CC3(CO)CC3)cc(SC3CCNCC3)c2c1` [Example 64, N-Cyclopropyl-3-fluoro-5-[2-{[1-(hydroxymethyl)cyclopropyl]methyl}-1-oxo-4-(piperidin-4-ylsulfanyl)-1,2-dihydroisoquinolin-6-yl]-4-methylbenzamide], the IC50 was 0.1 nM.

In the case of `CNC1CCN(S(=O)(=O)c2cn(CC3CC3)c(=O)c3ccc(-c4cc(C(=O)NC5CC5)cc(F)c4C)cc23)CC1` [Example 52, N-cyclopropyl-3-[2-(cyclopropylmethyl)-4-{[4-(methylamino)piperidin-1-yl]sulfonyl}-1-oxo-1,2-dihydroisoquinolin-6-yl]-5-fluoro-4-methylbenzamide], the IC50 is 0.2 nM.

As for `Cc1c(F)cc(C(=O)NC2CC2)cc1-c1ccc2c(=O)n(CC[C@H](C)O)cc(CN3CCNCC3)c2c1` [Example 9, N-Cyclopropyl-3-fluoro-5-{2-[(3S)-3-hydroxybutyl]-1-oxo-4-(piperazin-1-ylmethyl)-1,2-dihydroisoquinolin-6-yl}-4-methylbenzamide], the IC50 is 1.58 nM.

For `COCCCn1cc(CN2CCN[C@@H](CO)C2)c2cc(-c3cc(C(=O)NC4CC4)cc(F)c3C)ccc2c1=O` [Example 13], the IC50 was 0.501 nM.

As for `Cc1c(F)cc(C(=O)NC2CC2)cc1-c1ccc2c(=O)n(CCC(C)(C)O)cc(CN3CCN[C@@H](CO)C3)c2c1` [Example 14, N-Cyclopropyl-3-fluoro-5-(2-(3-hydroxy-3-methylbutyl)-4-(((3R)-3-(hydroxymethyl)piperazin-1-yl)methyl)-1-oxo-1,2-dihydroisoquinolin-6-yl)-4-methylbenzamide], the IC50 was 0.501 nM.

For the molecule `Cc1c(F)cc(C(=O)NC2CC2)cc1-c1ccc2c(=O)n(CCCO)cc(CN3CCNCC3)c2c1` [Example 10, N-Cyclopropyl-3-fluoro-5-[2-(3-hydroxypropyl)-1-oxo-4-(piperazin-1-ylmethyl)-1,2-dihydroisoquinolin-6-yl]-4-methylbenzamide], the IC50 is 0.0794 nM.

As for `Cc1c(F)cc(C(=O)NC2CC2)cc1-c1ccc2c(=O)n(CC(C)(C)CO)cc(CN3CCNCC3)c2c1` [Example 1, N-Cyclopropyl-3-fluoro-5-[2-(3-hydroxy-2,2-dimethylpropyl)-1-oxo-4-(piperazin-1-ylmethyl)-1,2-dihydroisoquinolin-6-yl]-4-methylbenzamide], the IC50 is 0.126 nM.

For the molecule `Cc1c(F)cc(C(=O)NC2CC2)cc1-c1ccc2c(=O)n(CC(C)(CO)CO)cc(CN3CCN[C@@H](C)C3)c2c1` [Example 36, N-Cyclopropyl-3-fluoro-5-(2-[3-hydroxy-2-(hydroxymethyl)-2-methylpropyl]-4-{[(3S)-3-methylpiperazin-1-yl]methyl}-1-oxo-1,2-dihydroisoquinolin-6-yl)-4-methylbenzamide], the IC50 was 3.16 nM.

`Cc1c(F)cc(C(=O)NC2CC2)cc1-c1ccc2c(=O)n(CC3CC3)cc(S(=O)(=O)N3CCC(N)CC3)c2c1` [Example 50, 3-{4-[(4-Aminopiperidin-1-yl)sulfonyl]-2-(cyclopropylmethyl)-1-oxo-1,2-dihydroisoquinolin-6-yl}-N-cyclopropyl-5-fluoro-4-methylbenzamide]: the IC50 was 0.2 nM.

For `Cc1c(F)cc(C(=O)NC2CC2)cc1-c1ccc2c(=O)n(CC(C)(C)CO)cc(CN3CCNC[C@@H]3C)c2c1` [Example 28, N-Cyclopropyl-3-fluoro-5-[2-(3-hydroxy-2,2-dimethylpropyl)-4-{[(2S)-2-methylpiperazin-1-yl]methyl}-1-oxo-1,2-dihydroisoquinolin-6-yl]-4-methylbenzamide], the IC50 was 0.794 nM.

As to `Cc1c(F)cc(C(=O)NC2CC2)cc1-c1ccc2c(=O)n(CC(C)(C)CO)cc(CN3CCN(C)CC3)c2c1` [Example 24, N-Cyclopropyl-3-fluoro-5-{2-(3-hydroxy-2,2-dimethylpropyl)-4-[(4-methylpiperazin-1-yl)methyl]-1-oxo-1,2-dihydroisoquinolin-6-yl}-4-methylbenzamide], the IC50 is 0.631 nM.

As for `Cc1c(F)cc(C(=O)NC2CC2)cc1-c1ccc2c(=O)n(CC3(CO)CC3)cc(SC[C@@H]3CCCNC3)c2c1` [Example 63], the IC50 is 0.398 nM.

`Cc1c(F)cc(C(=O)NC2CC2)cc1-c1ccc2c(=O)n(CCCCO)cc(CN3CCCN(C)CC3)c2c1` [Example 8, N-Cyclopropyl-3-fluoro-5-{2-(4-hydroxybutyl)-4-[(4-methyl-1,4-diazepan-1-yl)methyl]-1-oxo-1,2-dihydroisoquinolin-6-yl}-4-methylbenzamide]: the IC50 was 0.251 nM.

Take `Cc1c(F)cc(C(=O)NC2CC2)cc1-c1ccc2c(=O)n(CC3CC3)cc(S(=O)(=O)C3CCNCC3)c2c1` [Example 62, N-Cyclopropyl-3-[2-(cyclopropylmethyl)-1-oxo-4-(piperidin-4-ylsulfonyl)-1,2-dihydroisoquinolin-6-yl]-5-fluoro-4-methylbenzamide]: the IC50 is 0.2 nM.

As for `Cc1c(F)cc(C(=O)NC2CC2)cc1-c1ccc2c(=O)n(CC3CC3)cc(SC3CCNCC3)c2c1` [Example 61, N-Cyclopropyl-3-[2-(cyclopropylmethyl)-1-oxo-4-(piperidin-4-ylsulfanyl)-1,2-dihydroisoquinolin-6-yl]-5-fluoro-4-methylbenzamide], the IC50 is 0.1 nM.

In the case of `Cc1c(F)cc(C(=O)NC2CC2)cc1-c1ccc2c(=O)n(CC(CO)CO)cc(CN3CCN[C@@H](C)C3)c2c1` [Example 35, N-Cyclopropyl-3-fluoro-5-(2-[3-hydroxy-2-(hydroxymethyl)propyl]-4-{[(3S)-3-methylpiperazin-1-yl]methyl}-1-oxo-1,2-dihydroisoquinolin-6-yl)-4-methylbenzamide], the IC50 is 5.01 nM.

Regarding `Cc1c(F)cc(C(=O)NC2CC2)cc1-c1ccc2c(=O)n(CC3(CO)CC3)cc(CN3CCNC[C@@H]3CO)c2c1` [Example 16, N-Cyclopropyl-3-fluoro-5-(2-((1-(hydroxymethyl)cyclopropyl)methyl)-4-(((2R)-2-(hydroxymethyl)piperazin-1-yl)methyl)-1-oxo-1,2-dihydroisoquinolin-6-yl)-4-methylbenzamide], the IC50 is 0.251 nM.
